Measured values reported in patent US20180155757A1, “IDENTIFICATION OF BACTERIA THAT ARE RESISTANT TO CARBAPENEMS BY MEMBRANE IMPERVIOUSNESS” (BIOMÉRIEUX, priority 2015, published 2018).
Where two headings read alike, the source gives them in different places.

Assays:
Experiment in all cases: Etest MIC of indicator carbapenems on MH II agar without/with PMBN
Format in all cases: cell-based
E. coli 1204043 = test system: E. coli 1204043
Experimental: (§1) The determinations of antibiotic MIC were carried out on solid culture media with the Etest® method. To do this, Etest® strips (bioMérieux, France) were used: • Etest® Imipenem IM 32, and • Etest® Ertapenem ETP 32, and also solid culture media, differing from one another by virtue of their non-inhibitory concentrations of PMBN.
(§2) These solid culture media are prepared in Petri dishes (0=145 mm; V=50 ml) on a base of MH II Agar (Becton Dickinson®, United States), more or less supplemented with PMBN. The PMBN concentrations range from 0 up to concentrations equivalent to one fifth of the MIC of PMBN (⅕ MICPMBN).
(§3) Using a swab and the Retro C80™ rota-plater (bioMérieux, France), the culture media were inoculated with the bacteria, originating from an inoculum of 0.5 McFarland, prepared in 0.85% NaCl solution from colonies subcultured the day before on MH II agar.
(§4) The various Etest® strips are then deposited on the surface of the culture media. After 16 to 20 hours of incubation at 35° C., the MICS were read.
(§5) To do this, imipenem and ertapenem were used as indicator carbapenems. Non-inhibitory concentrations of PMBN, equivalent to concentrations of one tenth ( 1/10), one eighth (⅛) and one fifth (⅕) of the MIC of PMBN, were applied.
(§6) In the light of the MICPMBN values previously identified, very predominantly much higher than 300 μg/ml, the following standard concentrations were retained and applied to the bacterial strains to be tested: 50, 100, 150, 200 and 300 μg/ml.
(§7) By way of indicator carbapenems according to the invention, in addition to imipenem (IM) and ertapenem (ETP), meropenem (MP) was also tested. Like the other two antibiotics, meropenem was used in the form of Etest® strips (Etest® Meropenem MP 32 from the company bioMérieux, France).
(§8) The methods used to prepare the new culture media and to carry out the antibiotic-sensitivity tests are identical to those described above.

K. pneumoniae 1204034 = test system: K. pneumoniae 1204034
Experimental: as §1, §2, §3, §4, §5, §6, §7, §8

E. aerogenes 1204048 = E. aerogenes 1204048 (membrane impermeability), Table 4a, in µg/mL
Experimental: as §1, §2, §3, §4, §5, §6, §7, §8

K. pneumoniae 1002015 = conditions: Klebsiella pneumoniae, 1002015, K. pneumoniae 1002015 (porin−), Table 4, read-out: MIC
Experimental: as §1, §2, §3, §4, §5, §6, §7, §8

E. cloacae 9402034 = E. cloacae 9402034 (membrane impermeability), Table 4a
Experimental: as §1, §2, §3, §4, §5, §6, §7, §8

E. aerogenes 9306071 = E. aerogenes 9306071 (membrane impermeability), Table 4a
Experimental: as §1, §2, §3, §4, §5, §6, §7, §8

E. aerogenes 9203076 = test system: E. aerogenes 9203076
Experimental: as §1, §2, §3, §4, §5, §6, §7, §8

[1] = test system: K. pneumoniae KP 55 (porin−); conditions: Klebsiella pneumoniae
Experimental: as §1, §2, §3, §4, §7, §8

[2] = test system: K. pneumoniae 1012142 (KPC-2 producer)
Experimental: as §1, §2, §3, §4, §7, §8

[3] = test system: E. cloacae 1204052 (membrane impermeability)
Experimental: as §1, §2, §3, §4, §7, §8

[4] = test system: E. aerogenes 1204050 (membrane impermeability); conditions: in µg/mL
Experimental: as §1, §2, §3, §4, §7, §8

Compound: C[C@@H](O)[C@H]1C(=O)N2C(C(=O)O)=C(S[C@@H]3CN[C@H](C(=O)N(C)C)C3)[C@H](C)[C@H]12 [MP, meropenem]
- MIC (E. coli 1204043; E. coli 1204043 (membrane impermeability), [PMBN] 0, Table 4a, in µg/mL): 4
- MIC (E. coli 1204043; E. coli 1204043 (membrane impermeability), [PMBN] 100, Table 4a, in µg/mL): 0.75
- MIC (E. coli 1204043; E. coli 1204043 (membrane impermeability), [PMBN] 200, Table 4a, in µg/mL): 0.38
- MIC (E. coli 1204043; E. coli 1204043 (membrane impermeability), [PMBN] 300, Table 4a, in µg/mL): 0.19
- MIC (E. coli 1204043; Escherichia coli, 1204043, E. coli 1204043 (porin−), [PMBN] 0, Table 4, read-out: MIC): 3 µg/mL
- MIC (E. coli 1204043; Escherichia coli, 1204043, E. coli 1204043 (porin−), [PMBN] 150 μg/ml, Table 4, read-out: MIC): 0.064 µg/mL
- MIC (E. coli 1204043; Escherichia coli, 1204043, E. coli 1204043 (porin−), [PMBN] 200 μg/ml, Table 4, read-out: MIC): 0.008 µg/mL
- MIC (K. pneumoniae 1204034; K. pneumoniae 1204034 (membrane impermeability), [PMBN] 0, Table 4a): 16 µg/mL
- MIC (K. pneumoniae 1204034; K. pneumoniae 1204034 (membrane impermeability), [PMBN] 100, Table 4a): 1.5 µg/mL
- MIC (K. pneumoniae 1204034; K. pneumoniae 1204034 (membrane impermeability), [PMBN] 200, Table 4a): 0.75 µg/mL
- MIC (K. pneumoniae 1204034; K. pneumoniae 1204034 (membrane impermeability), [PMBN] 300, Table 4a): 0.38 µg/mL
- MIC (K. pneumoniae 1204034; Klebsiella pneumoniae, 1204034, K. pneumoniae 1204034 (porin−), [PMBN] 0, Table 4, read-out: MIC): 12 µg/mL
- MIC (K. pneumoniae 1204034; Klebsiella pneumoniae, 1204034, K. pneumoniae 1204034 (porin−), [PMBN] 150 μg/ml, Table 4, read-out: MIC): 0.5 µg/mL
- MIC (K. pneumoniae 1204034; Klebsiella pneumoniae, 1204034, K. pneumoniae 1204034 (porin−), [PMBN] 200 μg/ml, Table 4, read-out: MIC): 0.25 µg/mL
- MIC (E. aerogenes 1204048; [PMBN] 0): >32
- MIC (E. aerogenes 1204048; [PMBN] 100): 1.5
- MIC (E. aerogenes 1204048; [PMBN] 200): 1
- MIC (E. aerogenes 1204048; [PMBN] 300): 0.5-1
- MIC (K. pneumoniae 1002015; [PMBN] 0): 2 µg/mL
- MIC (K. pneumoniae 1002015; [PMBN] 150 μg/ml): 0.19 µg/mL
- MIC (K. pneumoniae 1002015; [PMBN] 200 μg/ml): 0.19 µg/mL
- MIC (E. cloacae 9402034; [PMBN] 0): 16 µg/mL
- MIC (E. cloacae 9402034; [PMBN] 100): 2 µg/mL
- MIC (E. cloacae 9402034; [PMBN] 200): 2 µg/mL
- MIC (E. cloacae 9402034; [PMBN] 300): 3 µg/mL
- MIC (E. aerogenes 9306071; [PMBN] 0): 4 µg/mL
- MIC (E. aerogenes 9306071; [PMBN] 100): 1.5 µg/mL
- MIC (E. aerogenes 9306071; [PMBN] 200): 1.5 µg/mL
- MIC (E. aerogenes 9306071; [PMBN] 300): 0.5 µg/mL
- MIC (E. aerogenes 9203076; E. aerogenes 9203076 (membrane impermeability), [PMBN] 0, Table 4a, in µg/mL): 4
- MIC (E. aerogenes 9203076; E. aerogenes 9203076 (membrane impermeability), [PMBN] 100, Table 4a, in µg/mL): 2
- MIC (E. aerogenes 9203076; E. aerogenes 9203076 (membrane impermeability), [PMBN] 200, Table 4a, in µg/mL): 1.5
- MIC (E. aerogenes 9203076; E. aerogenes 9203076 (membrane impermeability), [PMBN] 300, Table 4a, in µg/mL): 0.5-0.75
- MIC (E. aerogenes 9203076; Klebsiella aerogenes, 9203076, E. aerogenes 9203076 (porin−), [PMBN] 0, Table 4, read-out: MIC): 4 µg/mL
- MIC (E. aerogenes 9203076; Klebsiella aerogenes, 9203076, E. aerogenes 9203076 (porin−), [PMBN] 150 μg/ml, Table 4, read-out: MIC): 0.5 µg/mL
- MIC (E. aerogenes 9203076; Klebsiella aerogenes, 9203076, E. aerogenes 9203076 (porin−), [PMBN] 200 μg/ml, Table 4, read-out: MIC): 0.5 µg/mL
- MIC ([1]; [PMBN] 0): 0.19 µg/mL
- MIC ([1]; [PMBN] 50 μg/ml): 0.125 µg/mL
- MIC ([1]; [PMBN] 100 μg/ml): 0.064 µg/mL
- MIC ([1]; [PMBN] 150 μg/ml): 0.064 µg/mL
- MIC ([1]; [PMBN] 200 μg/ml): 0.047 µg/mL
- MIC ([2]; [PMBN] 0, Table 4a): > 32 µg/mL
- MIC ([2]; [PMBN] 100, Table 4a): > 32 µg/mL
- MIC ([2]; [PMBN] 200, Table 4a): > 32 µg/mL
- MIC ([2]; [PMBN] 300, Table 4a): > 32 µg/mL
- MIC ([3]; [PMBN] 0, Table 4a): 6 µg/mL
- MIC ([3]; [PMBN] 100, Table 4a): 0.75 µg/mL
- MIC ([3]; [PMBN] 200, Table 4a): 1.5 µg/mL
- MIC ([3]; [PMBN] 300, Table 4a): 0.5 µg/mL
- MIC ([4]; [PMBN] 0, Table 4a): >32
- MIC ([4]; [PMBN] 100, Table 4a): 2-4
- MIC ([4]; [PMBN] 200, Table 4a): 1.5-2
- MIC ([4]; [PMBN] 300, Table 4a): 1
